From patent US20050215646A1, “Methods for treating multiple sclerosis and pharmaceutical compositions therefor” (Renovis, Inc., priority 2004, published 2005) come the findings set out here.

One assay relates to rat EAE model. In words: Lewis rat model of experimental autoimmune encephalomyelitis (EAE). To be noted: 10 mg/kg/day oral gavage. The assay is classed as in vivo. How it is done:
7- to 10-week female Lewis rats (The Jackson Laboratory, Bar Harbor, Me.) were used since they are susceptible to EAE, and since MS occurs at a 2:1 ratio between females and males respectively. Rats were immunized either at the base of the tail (or in one hind footpad) with myelin antigen myelin basic peptide, MBP 85-99. Peptide antigens were mixed with complete Freund's adjuvant including killed mycobacterium tuberculosis at a doses of 4 mg/ml. 200 micrograms of antigen mixed with the 0.1 ml emulsion of adjuvant were used. The myelin antigens were dissolved in phosphate buffered saline.
Nine rats were used in each of the following groups: EAE control, vehicle control, compound 15 (prevention), compound 15 (pro-treatment), phenyl-N-butyl-nitrone (prevention) and phenyl-N-butyl-nitrone (pro-treatment). For the treatment model, fifteen rats were used in each of three groups: EAE control, vehicle control, compound 15 (treatment). Drugs were administered via oral gavage feeding. Rats were dosed daily after the first dose until recovery from acute disease (typically 20 days after EAE induction). Compound 15 was dosed at 10 mg/kg/day and phenyl-N-butyl-nitrone was dosed at 100 mg/kg/day. In the prevention model, first dose of the drugs was administered 7 days prior to EAE induction. In the pro-treatment model, first dose was administered 4 days after EAE induction. In the treatment model, first dose was administered at the peak of the disease after animals were randomized into equal groups.
All rats were followed daily for clinical signs and weighed every four days. Longer water tubes were used to allow mice to drink when they develop paralysis, and chow was put on the floor of the cage to facilitate nourishment if the rats were paralyzed. Rats were scored as follows: 0, healthy; 1, tail weakness or paralysis; 2, paraparesis (incomplete paralysis of one or two hind limbs or plegia of one hind limb); 3, paraplegia extending to the thorax; 4, forelimb weakness, paralysis with hind limb paraparesis or paraplegia; 5, moribund or dead animal.

The target in the next assay is CXCR4 (Homo sapiens, UniProt P61073). In words: Migration of RBL-2H3 cells expressing CXCR4. The assay is classed as cell-based. Further details: cDNA fragments encompassing chemokine receptor coding regions; expressed in transfected cells. To be noted: RBL-2H3 cells expressing CXCR4, 2 hours. How it is done:
(§1) RBL-2H3 cells were obtained from American Type Culture Collection (CRL-2256) and cultured in Minimum essential medium (MEM) with 10% heat-inactivated fetal bovine serum, 100 μg/ml penicillin/streptomycin. cDNA fragments encompassing chemokine receptor coding regions were obtained from cDNAs synthesized from HL-60 cells and/or human peripheral blood mononuclear cells by the polymerase chain reaction. Expression constructs of chemokine receptors were generated by cloning PCR fragments into expression vector pEF6/V5-TOPO (K9610-20, Invitrogen). Plasmid containing full-length human CXCR5 cDNA (human CXCR50TN00, pcDNA3.1+) was purchased from UMR cDNA Resource Center (Rolla, Mo.). Plasmid containing full-length human CCR7 cDNA (human CCR0700000, pcDNA3.1+) was purchased from UMR cDNA Resource Center (Rolla, Mo.). Transient transfections were carried out with Fugene 6 transfection reagent (1814443, Roche Applied Science) according to the manufacturer's instructions. […]
(§2) Following the migration assays, cells that had migrated to the bottom wells were quantitated using CyQuant reagents according to the manufacturer's instructions (Molecular Probes, Eugene, Oreg.). […] The fluorescence intensity (excitation wavelength at 485 nm and emission wavelength at 530 nm) was measured using Safire Spectrometer (Tecan; Research Triangle Park, N.C.).

In the next assay the target is T1, CCR7 (Homo sapiens, UniProt P32248).
T1 construct: Plasmid containing full-length human CCR7 cDNA; host or cells: RBL-2H3 (ATCC CRL-2256), transient transfection
T1 sequence (P32248 25-378): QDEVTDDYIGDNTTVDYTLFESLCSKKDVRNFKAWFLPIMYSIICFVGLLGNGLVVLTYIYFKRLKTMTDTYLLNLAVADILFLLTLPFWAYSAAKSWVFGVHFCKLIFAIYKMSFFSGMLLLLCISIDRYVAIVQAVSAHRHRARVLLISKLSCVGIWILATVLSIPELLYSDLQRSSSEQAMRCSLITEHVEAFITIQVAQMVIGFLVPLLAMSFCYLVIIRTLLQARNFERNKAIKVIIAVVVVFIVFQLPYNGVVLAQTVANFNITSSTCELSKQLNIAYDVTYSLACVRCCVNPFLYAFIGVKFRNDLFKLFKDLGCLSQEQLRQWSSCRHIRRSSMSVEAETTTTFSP
In words: Migration of RBL-2H3 cells expressing CCR7. It counts as cell-based. To be noted: RBL-2H3 cells expressing CCR7, 2 hours. How it is done: as §1, §2

Chain of CXCR4 (P61073 whole entry, the tested form may be a part): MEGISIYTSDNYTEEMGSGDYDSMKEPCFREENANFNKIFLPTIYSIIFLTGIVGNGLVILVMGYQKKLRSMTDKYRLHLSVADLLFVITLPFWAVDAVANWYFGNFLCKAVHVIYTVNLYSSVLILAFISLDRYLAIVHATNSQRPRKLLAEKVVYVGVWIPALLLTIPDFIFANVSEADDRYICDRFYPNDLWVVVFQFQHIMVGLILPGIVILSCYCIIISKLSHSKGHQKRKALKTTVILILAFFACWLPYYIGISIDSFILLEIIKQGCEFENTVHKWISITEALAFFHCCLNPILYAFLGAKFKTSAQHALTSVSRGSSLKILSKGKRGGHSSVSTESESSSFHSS

For `COCOc1c(C(C)(C)C)cc(/C=[N+](\[O-])C(C)(C)C)cc1C(C)(C)C` [Compound 15, α-(4-methoxymethoxy-3,5-di-tert-butyl-phenyl)-N-tert-butylnitrone], the “disease free rats, treatment model” value in the assay with rat EAE model (first dose at the peak of EAE, compared to controls, FIG. 14) was “significantly more rats treated with compound 15 were disease free”. For the same compound, the “clinical scores, pro-treatment model” value with rat EAE model (rats, first dose 4 days after EAE induction, compared to control or PBN, FIG. 13) is given as “significantly better clinical scores”. Moreover, the “change of clinical scores on day 15, pro-treatment model” value with rat EAE model (rats, first dose 4 days after EAE induction, day 15) is reported as “improved dramatically”. Besides, the “clinical scores, prevention model” value with rat EAE model (rats, first dose 7 days prior to EAE induction, compared to controls and to PBN (100 mg/kg/day), FIG. 12) was “significantly better clinical scores”.
With `CCC(C)c1cc(/C=[N+](\[O-])C(C)(C)C)cc(C(C)CC)c1O` (stereo not drawn) [Compound 17], the “induction of cell migration” value on CXCR4 and at CCR7 was “induced migration” in each case.
